Experimental data taken from US12558342B2, “2-[2-({12,12-dimethyl-4-oxo-6-phenyl-3,11-dioxatricyclo[8.4.0.0,2,7]tetradeca-1,5,7,9-tetraen-8-yl}oxy)acetamido]benzamide and derivatives as inhibitor of clock:bmal1 interaction for the treatment of circadian rhythm diseases and disorders” (KOC UNIVERSITESI, priority 2019, dated 2026).

Experiments:
CLOCK [1] = target: T1, CLOCK (Homo sapiens, UniProt O15516); test: Cytosol-nuclear fractionation of U2OS cells, CLOCK; type: cell-based; conditions: 20 μM, two days
T1 sequence (O15516 1-846): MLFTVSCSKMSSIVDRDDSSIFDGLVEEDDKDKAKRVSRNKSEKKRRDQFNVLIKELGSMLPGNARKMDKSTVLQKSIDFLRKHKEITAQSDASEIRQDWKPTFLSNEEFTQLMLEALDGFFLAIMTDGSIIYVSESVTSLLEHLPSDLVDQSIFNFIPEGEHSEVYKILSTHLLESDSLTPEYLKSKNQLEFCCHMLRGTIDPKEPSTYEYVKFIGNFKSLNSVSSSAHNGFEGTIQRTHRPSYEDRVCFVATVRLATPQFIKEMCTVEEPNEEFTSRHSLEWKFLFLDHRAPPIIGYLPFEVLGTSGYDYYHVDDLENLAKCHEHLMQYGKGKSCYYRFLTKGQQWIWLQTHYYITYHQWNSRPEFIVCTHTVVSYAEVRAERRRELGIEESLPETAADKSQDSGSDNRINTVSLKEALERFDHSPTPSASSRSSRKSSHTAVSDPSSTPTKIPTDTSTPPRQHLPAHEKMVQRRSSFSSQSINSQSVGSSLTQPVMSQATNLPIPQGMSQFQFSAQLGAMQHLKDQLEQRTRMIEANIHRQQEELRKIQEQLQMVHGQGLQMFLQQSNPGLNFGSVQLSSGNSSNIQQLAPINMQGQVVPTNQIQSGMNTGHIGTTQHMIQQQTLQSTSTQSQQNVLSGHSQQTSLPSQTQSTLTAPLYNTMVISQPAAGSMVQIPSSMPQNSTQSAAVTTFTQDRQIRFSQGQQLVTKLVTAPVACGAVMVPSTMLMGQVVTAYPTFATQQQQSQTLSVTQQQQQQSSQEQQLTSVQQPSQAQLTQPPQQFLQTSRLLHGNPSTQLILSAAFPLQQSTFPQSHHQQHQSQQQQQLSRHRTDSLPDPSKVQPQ
Description: U2 OS cells treated with 20 μM CLK8 and 0.5% DMSO were used for fractionation analysis. The 4×10^5 was suspended in 500 ul cytosolic lysis buffer (10 mM HEPES pH 7,9, 10 mM KCl, 0.1 mM EDTA, 0.05% NP40 with protease inhibitors) and incubated on ice for 10 minutes. The lysate was centrifuged for 3 minutes at 3000 rpm at 4° C. The resulting supernatant was centrifuged one more time and supernatant collected as cytosolic fraction. On the other hand, the resulting pellet from lysate centrifugation was suspended in nuclear lysis buffer (20 mM HEPES pH 7.9, 0.4 M NaCl, 1 mM EDTA, 10% glycerol with protease inhibitors) and sonicated 2 times 10 seconds with 60% power. After centrifuge at 15 000 g for 5 minutes at 4° C., supernatant was collected as nuclear fraction. Collected fractions were used for Western Blot analysis. Fractionation efficiency was checked with Western Blot by using tubulin (Sigma T9026) as cytosolic marker and Histone-H3 (abcam ab1791) as nuclear marker.

CLOCK [2] = target: T1, CLOCK; test: Pull-down assay with biotinylated CLK8, lysate of HEK293T cells overexpressing CLOCK and BMAL1; type: binding; set-up: expressed in transfected cells; host or cells: HEK293T; conditions: 200 μM competitor
Description: HEK293T cells were transiently transfected with tag-free hsClock and mBmal1. After 48 hours of transfection, cells were harvested and whole cell lysate was prepared with ice-cold lysis buffer (50 mM Tris-HCl pH 7.4, 2 mM EDTA, 1 mM MgCl2, 0.2% NP-40, 1 mM sodium orthovanadate, 1 mM sodium fluoride and protease inhibitor cocktail) followed by centrifugation at 7000×g at 4° C. for 10 minutes. Lysate was diluted with ice-cold 2× binding buffer (100 mM Tris-HCl pH 7.4, 300 mM NaCl, 0.2% NP-40, 2 mM sodium orthovanadate, 2 mM sodium fluoride, and protease inhibitor cocktail) 27. The lysate was divided into three fractions to be treated with either DMSO, or 20 μM of bitoinylated-CLK8 (bait) with or without 200 μM CLK8 (competitor). The lysate-compound samples were incubated and mixed continuously at 4° C. for 1 hour. After equilibrating NeutroAvidin Agarose resin (Thermo Scientific) with lysis buffer, the lysate-compound mixture and NeutroAvidin Agarose resin were incubated and mixed continuously at 4° C. overnight. The beads were washed four times with 1× binding buffer. To elute the bound proteins Laemmli buffer was added and samples were heated at 95° C. for 7 minutes. The pull-down precipitates were subjected to SDS-PAGE and transferred to a PVDF membrane (Millipore). […]

- level of CLOCK in the nucleus (CLOCK [1]): reduced
- binding to CLOCK (competition with bait) (CLOCK [2]): specifically binds to CLOCK
SMILES: CC1(C)CCc2c(cc(OCC(=O)Nc3ccccc3C(N)=O)c3c(-c4ccccc4)cc(=O)oc23)O1 [CLK8, 2-[2-({12,12-dimethyl-4-oxo-6-phenyl-3,11-dioxatricyclo [8.4.0.0,2,7]tetradeca-1,5,7,9-tetraen-8-yl}oxy)acetamido] benzamide]
